From publication PMC4158450 (Bioorganic & medicinal chemistry letters, 2014)
Blank lines part the entries; values can stand above or below the compound they belong to.

What was measured:
hA3AR [1] = target: T1, hA3AR (Homo sapiens, UniProt P0DMS8); conditions: 1S,2R diastereoisomer of 2 vs 1R,2S isomer; cited from earlier work
T1 sequence (P0DMS8 1-318): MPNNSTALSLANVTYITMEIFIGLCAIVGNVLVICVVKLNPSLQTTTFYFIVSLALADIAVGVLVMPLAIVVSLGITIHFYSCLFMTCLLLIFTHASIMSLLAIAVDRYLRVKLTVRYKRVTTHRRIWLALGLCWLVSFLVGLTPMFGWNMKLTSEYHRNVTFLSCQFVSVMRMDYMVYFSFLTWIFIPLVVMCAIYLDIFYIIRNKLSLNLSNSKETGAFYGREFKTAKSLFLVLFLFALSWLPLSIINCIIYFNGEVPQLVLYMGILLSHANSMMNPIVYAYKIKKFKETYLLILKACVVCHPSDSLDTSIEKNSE

rA3AR = conditions: in words; cited from earlier work
[2] = test system: chronic neuropathic pain (mechanoallodynia), CCI model; experiment: chronic constriction injury; format: in vivo, mouse; conditions: mice, oral administration
hA2AAR = hA2AAR (Homo sapiens, UniProt P29274); experiment: hA2AAR radioligand binding
hA3AR [3] = target: T1, hA3AR; experiment: hA3AR radioligand binding; conditions: in words, vs hA1AR and hA2AAR

hA2AAR, sequence (P29274 whole entry): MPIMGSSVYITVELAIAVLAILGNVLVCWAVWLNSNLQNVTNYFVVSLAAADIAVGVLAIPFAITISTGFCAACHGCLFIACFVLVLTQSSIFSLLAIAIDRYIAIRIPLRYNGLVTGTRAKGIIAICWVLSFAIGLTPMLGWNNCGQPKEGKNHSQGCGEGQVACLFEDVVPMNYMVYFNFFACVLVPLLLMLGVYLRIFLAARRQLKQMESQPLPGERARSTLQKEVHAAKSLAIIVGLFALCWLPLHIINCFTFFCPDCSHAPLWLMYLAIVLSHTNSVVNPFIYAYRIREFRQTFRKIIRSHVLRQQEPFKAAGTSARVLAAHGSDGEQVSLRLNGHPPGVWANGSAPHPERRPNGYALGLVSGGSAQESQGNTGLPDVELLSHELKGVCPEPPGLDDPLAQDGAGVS

SMILES: O=[N+]([O-])c1cccc(C2CC2Nc2nc(C#Cc3ccccc3)nc3c2ncn3[C@@H]2O[C@H](CO)[C@@H](O)[C@H]2O)c1 (some centres unmarked) [Compound 2]
- fold more potent in binding to the hA3AR than the corresponding 1R,2S isomer (hA3AR [1]): ~ 10 fold

SMILES: OC[C@H]1O[C@@H](n2cnc3c(NC4CC4c4ccccc4)nc(C#Cc4ccccc4)nc32)[C@H](O)[C@@H]1O (some centres unmarked) [Compound 1]
- affinity at the rA3AR as compared to the hA3AR (rA3AR): substantially lower affinity

SMILES: CNC(=O)[C@@]12C[C@@H]1[C@@H](n1cnc3c(N[C@@H]4C[C@H]4c4ccc(F)c(F)c4)nc(C#Cc4ccccn4)nc31)[C@H](O)[C@@H]2O [Compound 18]
- time of peak effect post-administration [2]: 1 h

- Ki (hA2AAR): ~1000 nM
SMILES: CNC(=O)[C@@]12C[C@@H]1[C@@H](n1cnc3c(N)nc(C#Cc4ccccc4)nc31)[C@H](O)[C@@H]2O [Compound 9]

- selectivity for the A3AR (hA3AR [3]): very selective
SMILES: CNC(=O)[C@@]12C[C@@H]1[C@@H](n1cnc3c(NC4CC4c4ccc(F)c(F)c4)nc(C#Cc4ccccc4)nc31)[C@H](O)[C@@H]2O (some centres unmarked) [Compound 15]
